Assay results: patent publication US9663473B2 (Actelion Pharmaceuticals Ltd, priority 2013, dated 2017)
Structures can show the parent of a compound that is named as a salt. Each block holds one molecule with its values, some of them ahead of it.

Target: T1, recombinant human ALX receptor (Homo sapiens, UniProt P25090)
T1 construct: expressed in transfected cells; host or cells: HEK293 (HEK293-hALXR-Gα16)
T1 sequence (P25090 1-351): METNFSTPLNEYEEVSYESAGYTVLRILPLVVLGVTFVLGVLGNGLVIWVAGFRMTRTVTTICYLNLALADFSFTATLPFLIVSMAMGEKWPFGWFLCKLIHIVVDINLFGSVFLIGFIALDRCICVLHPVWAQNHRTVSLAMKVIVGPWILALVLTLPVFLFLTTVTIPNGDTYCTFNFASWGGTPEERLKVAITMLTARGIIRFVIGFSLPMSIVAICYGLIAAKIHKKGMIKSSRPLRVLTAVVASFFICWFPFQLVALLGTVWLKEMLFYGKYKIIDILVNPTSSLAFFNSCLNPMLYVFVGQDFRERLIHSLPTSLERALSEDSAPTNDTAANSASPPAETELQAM
Test: Intracellular calcium measurements (FLIPR), ALX receptor agonistic activity
Type: cell-based
Settings: HEK293-hALXR-Gα16 cells, Fluo-4 calcium signal, normalized to WKYMVm 10 nM
Summary of the method: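 Agonist-induced calcium flux was read by FLIPR (488/540 nm) as baseline-subtracted peak emission, expressed relative to WKYMVm at 10 nM final. Cells used: HEK293-hALXR-Gα16, dye-loaded 60 min at 37° C. with 1 μM Fluo-4 AM before compound dose-response addition.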

Compound: COc1ccc(C[C@@H](NC(=O)NC23CCN(CC2)CC3)c2nc3ccccc3[nH]2)cc1 [Example 170, (R)-1-(1-(1H-Benzo[d]imidazol-2-yl)-2-(4-methoxyphenyl)ethyl)-3-(quinuclidin-4-yl)urea]
EC50: 76 nM

Compound: COc1ccc(C[C@@H](NC(=O)Nc2ccc(OC)cc2)c2nc3ccccc3[nH]2)cc1 [Example 104, (R)-1-(1-(1H-Benzo[d]imidazol-2-yl)-2-(4-methoxyphenyl)ethyl)-3-(4-methoxyphenyl)urea]
EC50: 257 nM

Compound: COc1ccc(C[C@@H](NC(=O)N[C@H](C)c2ccccc2OC)c2nc3ccccc3[nH]2)cc1 [Example 327, 1-((R)-1-(1H-Benzo[d]imidazol-2-yl)-2-(4-methoxyphenyl)ethyl)-3-((R)-1-(2-methoxyphenyl)ethyl)urea]
EC50: 310 nM

Compound: COc1ccc(C[C@@H](NC(=O)N[C@H](C)c2cccc(OC)c2)c2nc3ccccc3[nH]2)cc1 [Example 332, 1-((R)-1-(1H-Benzo[d]imidazol-2-yl)-2-(4-methoxyphenyl)ethyl)-3-((R)-1-(3-methoxyphenyl)ethyl)urea]
EC50: 101 nM

Compound: COc1ccc(CC(NC(=O)NC23CCC(O)(CC2)CC3)c2nc3ccc(F)cc3[nH]2)c(F)c1 (single isomer, unassigned; ent-2) [Example 398, 1-(1-(6-Fluoro-1H-benzo[d]imidazol-2-yl)-2-(2-fluoro-4-methoxyphenyl)ethyl)-3-(4-hydroxybicyclo[2.2.2]octan-1-yl)urea (ent-2)]
EC50: 2620 nM

Compound: COc1ccc(C[C@@H](NC(=O)NCCN2CCN(C)CC2)c2nc3ccccc3[nH]2)cc1 [Example 151, (R)-1-(1-(1H-Benzo[d]imidazol-2-yl)-2-(4-methoxyphenyl)ethyl)-3-(2-(4-methylpiperazin-1-yl)ethyl)urea]
EC50: 572 nM

Compound: COc1ccc(C[C@@H](NC(=O)NCc2ccccn2)c2nc3ccccc3[nH]2)cc1 [Example 268, (R)-1-(1-(1H-Benzo[d]imidazol-2-yl)-2-(4-methoxyphenyl)ethyl)-3-(pyridin-2-ylmethyl)urea]
EC50: 659 nM

Compound: COc1ccc(C[C@@H](NC(=O)NC[C@H]2CCCC[C@@H]2O)c2nc3ccccc3[nH]2)cc1 (relative stereo) [Example 103, 1-((R)-1-(1H-Benzo[d]imidazol-2-yl)-2-(4-methoxyphenyl)ethyl)-3-(((1R*,2S*)-2-hydroxycyclohexyl)methyl)urea]
EC50: 309 nM

Compound: COc1ccc(C[C@@H](NC(=O)NC2COCc3ccccc32)c2nc3ccccc3[nH]2)cc1 (stereo partly drawn) [Example 218, 1-((R)-1-(1H-Benzo[d]imidazol-2-yl)-2-(4-methoxyphenyl)ethyl)-3-(isochroman-4-yl)urea]
EC50: 34 nM

Compound: COc1ccc(C[C@@H](NC(=O)NCc2cc(Cl)ccc2Cl)c2nc3ccccc3[nH]2)cc1 [Example 303, (R)-1-(1-(1H-Benzo[d]imidazol-2-yl)-2-(4-methoxyphenyl)ethyl)-3-(2,5-dichlorobenzyl)urea]
EC50: 426 nM

Compound: COc1ccc(CC(NC(=O)N[C@H]2CC[C@H](O)CC2)c2nc3ccc(F)cc3[nH]2)cc1F (single isomer, unassigned; ent-2) [Example 371, 1-(1-(6-Fluoro-1H-benzo[d]imidazol-2-yl)-2-(3-fluoro-4-methoxyphenyl)ethyl)-3-(trans-4-hydroxycyclohexyl)urea (ent-2)]
EC50: 250 nM

Compound: COc1ccc(CC(NC(=O)N[C@H]2CC[C@H](O)CC2)c2nc3ccccc3[nH]2)c(F)c1F (relative stereo) [Example 232, 1-(1-(1H-Benzo[d]imidazol-2-yl)-2-(2,3-difluoro-4-methoxyphenyl)ethyl)-3-(trans-4-hydroxycyclohexyl)urea]
EC50: 2.6 nM

Compound: COC(=O)c1ccc([C@H](C)NC(=O)N[C@H](Cc2ccc(OC)cc2)c2nc3ccccc3[nH]2)cc1 [Example 337, Methyl 4-((S)-1-(3-((R)-1-(1H-benzo[d]imidazol-2-yl)-2-(4-methoxyphenyl)ethyl)ureido)ethyl)benzoate]
EC50: 380 nM

Continued by falling EC50, values first:

EC50: 987 nM
Compound: COc1ccc(CCNC(=O)N[C@H](Cc2ccc(OC)cc2)c2nc3ccccc3[nH]2)cc1 [Example 54, (R)-1-(1-(1H-Benzo[d]imidazol-2-yl)-2-(4-methoxyphenyl)ethyl)-3-(4-methoxyphenethyl)urea]

EC50: 351 nM
Compound: COc1ccc(C[C@@H](NC(=O)NCC2COc3cnccc32)c2nc3ccccc3[nH]2)cc1 (stereo partly drawn) [Example 282, 1-((R)-1-(1H-Benzo[d]imidazol-2-yl)-2-(4-methoxyphenyl)ethyl)-3-((2,3-dihydrofuro[2,3-c]pyridin-3-yl)methyl)urea]

EC50: 287 nM
Compound: COc1ccc(C[C@@H](NC(=O)N[C@H](C)c2ccccc2)c2nc3ccccc3[nH]2)cc1 [Example 349, 1-((R)-1-(1H-Benzo[d]imidazol-2-yl)-2-(4-methoxyphenyl)ethyl)-3-((R)-1-phenylethyl)urea]

EC50: 247 nM
Compound: COc1ccc(C[C@@H](NC(=O)Nc2cccc(OC)c2)c2nc3ccccc3[nH]2)cc1 [Example 177, (R)-1-(1-(1H-Benzo[d]imidazol-2-yl)-2-(4-methoxyphenyl)ethyl)-3-(3-methoxyphenyl)urea]

EC50: 209 nM
Compound: COc1ccc(C[C@@H](NC(=O)NCCN2CCNCC2)c2nc3ccccc3[nH]2)cc1 [Example 150, (R)-1-(1-(1H-Benzo[d]imidazol-2-yl)-2-(4-methoxyphenyl)ethyl)-3-(2-(piperazin-1-yl)ethyl)urea]

EC50: 178 nM
Compound: COc1ccc(C[C@@H](NC(=O)N[C@H]2CC[C@@H](C(=O)OC)CC2)c2nc3ccccc3[nH]2)cc1 [Example 223, cis-Methyl 4-(3-((R)-1-(1H-benzo[d]imidazol-2-yl)-2-(4-methoxyphenyl)ethyl)ureido)cyclohexanecarboxylate]

EC50: 156 nM
Compound: COc1ccc(CC(NC(=O)Nc2ccnn2-c2ccc(C(C)C)cc2)c2nc3ccccc3[nH]2)cc1 (stereo not shown) [Example 407, 1-(1-(1H-benzo[d]imidazol-2-yl)-2-(4-methoxyphenyl)ethyl)-3-(1-(4-isopropylphenyl)-1H-pyrazol-5-yl)urea]

EC50: 138 nM
Compound: COc1c(F)cc(CC(NC(=O)N[C@H]2CC[C@H](O)CC2)c2nc3ccccc3[nH]2)cc1F (relative stereo) [Example 241, 1-(1-(1H-Benzo[d]imidazol-2-yl)-2-(3,5-difluoro-4-methoxyphenyl)ethyl)-3-(trans-4-hydroxycyclohexyl)urea]

EC50: 137 nM
Compound: COc1ccc(CC(NC(=O)NCCc2cccc(OC)c2)c2nc3ccccc3[nH]2)cc1 (stereo not shown) [Example 47, 1-(1-(1H-Benzo[d]imidazol-2-yl)-2-(4-methoxyphenyl)ethyl)-3-(3-methoxyphenethyl)urea]

EC50: 113 nM
Compound: COc1ccc(C[C@@H](NC(=O)NC2CCN(C(C)C)CC2)c2nc3ccccc3[nH]2)cc1 [Example 101, (R)-1-(1-(1H-Benzo[d]imidazol-2-yl)-2-(4-methoxyphenyl)ethyl)-3-(1-isopropylpiperidin-4-yl)urea]

EC50: 56 nM
Compound: COc1ccc(CC(NC(=O)Nc2ccnn2-c2ccccn2)c2nc3ccccc3[nH]2)cc1 (stereo not shown) [Example 411, 1-(1-(1H-benzo[d]imidazol-2-yl)-2-(4-methoxyphenyl)ethyl)-3-(1-(pyridin-2-yl)-1H-pyrazol-5-yl)urea]

EC50: 56 nM
Compound: COc1ccc(CC(NC(=O)Nc2ccnn2-c2cccc(OC)c2)c2nc3ccccc3[nH]2)cc1 (stereo not shown) [Example 419, 1-(1-(1H-benzo[d]imidazol-2-yl)-2-(4-methoxyphenyl)ethyl)-3-(1-(3-methoxyphenyl)-1H-pyrazol-5-yl)urea]

EC50: 51 nM
Compound: COc1ccc(C[C@@H](NC(=O)NCc2cccnc2OCC(F)(F)F)c2nc3ccccc3[nH]2)cc1 [Example 64, (R)-1-(1-(1H-Benzo[d]imidazol-2-yl)-2-(4-methoxyphenyl)ethyl)-3-((2-(2,2,2-trifluoroethoxy)pyridin-3-yl)methyl)urea hydrochloride]

EC50: 45 nM
Compound: COc1ccc(CC(NC(=O)NC2CCCC2)c2nc3ccccc3[nH]2)cc1 (stereo not shown) [Example 12, 1-(1-(1H-Benzo[d]imidazol-2-yl)-2-(4-methoxyphenyl)ethyl)-3-cyclopentylurea]

EC50: 29 nM
Compound: COc1ccc(C[C@@H](NC(=O)N[C@H]2CCCC[C@H]2C(N)=O)c2nc3ccccc3[nH]2)cc1 (relative stereo) [Example 18, (1R*,2S*)-2-(3-((R)-1-(1H-Benzo[d]imidazol-2-yl)-2-(4-methoxyphenyl)ethyl)ureido)cyclohexanecarboxamide]

EC50: 27 nM
Compound: O=C(NC(Cc1ccc(C(F)(F)F)cc1F)c1nc2ccccc2[nH]1)NC12CCC(O)(CC1)CC2 (single isomer, unassigned; ent-1) [Example 362, 1-(1-(1H-Benzo[d]imidazol-2-yl)-2-(2-fluoro-4-(trifluoromethyl)phenyl)ethyl)-3-(4-hydroxybicyclo[2.2.2]octan-1-yl)urea (ent-1)]

EC50: 7.2 nM
Compound: COc1cc(F)c(CC(NC(=O)N[C@H]2CC[C@](C)(O)CC2)c2nc3ccccc3[nH]2)cc1F (mixture of isomers) [Example 250, 1-(1-(1H-Benzo[d]imidazol-2-yl)-2-(2,5-difluoro-4-methoxyphenyl)ethyl)-3-(trans-4-hydroxy-4-methylcyclohexyl)urea]

EC50: 1 nM
Compound: COc1ccc(CC(NC(=O)NC23CCC(O)(CC2)CC3)c2nc3ccc(F)cc3[nH]2)cc1F (single isomer, unassigned; ent-1) [Example 319, 1-(1-(6-Fluoro-1H-benzo[d]imidazol-2-yl)-2-(3-fluoro-4-methoxyphenyl)ethyl)-3-(4-hydroxybicyclo[2.2.2]octan-1-yl)urea (ent-1)]
